In patent US4556560A, “Methods for the treatment and prophylaxis of diaper rash and diaper dermatitis” (The Procter & Gamble Company, priority 1983, dated 1985):

How the values were obtained:
[1] = tested on: primary skin irritation caused by prolonged contact of a urine/feces mixture under occluded conditions; experiment: Hairless mouse patch test: feces/urea homogenate patched with lipase-inhibiting agent solution (Examples I-V); format: in vivo, hairless mice
Excerpt: (§1) This method may be used to determine the utility and effect of lipase-inhibiting agents, or compositions containing these agents, on primary skin irritation caused by prolonged contact of a urine/feces mixture under occluded conditions.
(§2) Male, hairless mice at 8-12 weeks of age are used for the study. The animals are housed individually in plastic shoe box cages for the experiments, and fed Purina® Rodent Laboratory Chow and tap water ad libitum. Mice are assigned numbers during each study which are posted on each cage.
(§3) The mice are cared for, and the room conditions maintained following acceptable animal study conditions.
(§4) Patch treatment compositions are prepared by taking the fecal material to be tested and mixing it with a 2% urea solution at a weight:weight ratio of 1:4 feces:urea. 0.1 ml of the lipase-inhibiting agent solution or composition of the desired concentration is patched along with 0.375 ml of the urine/feces mixture. Patches for the mice are prepared by saturating an absorbent material (such as cotton) with the feces/urine suspension, placing it on the skin and covering it with an impermeable material. For example, this may be done by cutting away the adhesive border from a 37×20 mm Webril pad. The Webril pad will then be cut into quarters to obtain 1 cm^2 patches. Each patch will be saturated with 0.1 ml of the lipase-inhibiting agent solution and 0.375 ml of the urine/feces mixture. The control patch is simply 0.375 ml of the urine/feces mixture. Prior to application of test or control patches, each mouse is anesthetized by placement into a chamber containing ether. The test patch is then placed midline on the mouse back, towards the shoulder, and covered with Blenderm® (3M) tape in order to occlude the patch site. The mouse is next wrapped with Scanpor® tape (Norgeplaster A/S) to secure the patch. After 24 hrs., the initial patch is removed and a fresh patch of test substance or a fresh control is applied, as described above. After 24 hrs., the second patch is removed, thus giving a total occluded patch time of 48 hrs.
(§5) Approximately 1 hr. after removal of the second patch, the test site skin condition is evaluated using the grading scales outlined in the following tables:
(§6) Each animal is examined by two graders, at least one of whom is blind as to the treatments applied. Both graders' scores should be calculated for each of the above categories, as well as a primary Irritation Index equalling the sum of scores for each category.
(§7) In Examples I-V, fecal material is mixed with a 2% urea solution at a weight:weight ratio of 1:4 feces:urea, and this homogenate is patched as described above in the Hairless Mouse model with 0.375 ml of this homogenate. The pure homogenate is patched as the control. Where a specific concentration of lipase-inhibiting agent is expressed, the feces/urea homogenate is patched in combination with 0.1 ml of a solution of the described lipase-inhibiting agent solution.

[2] = tested on: lipase; experiment: Lipase activity of stool-free, urine-free pure lipase composition with lipase-inhibiting agent (Examples VI, VII); format: biochemical; design: LIPASE ACTIVITY: unit not given here; conditions: for % REDUCTION LIPASE ACTIVITY / LIPASE ACTIVITY: pure lipase composition; for inhibition of lipase: inability to provide the critical level of free metal ion Zn++
Method: (§8) For example, the method of commerce available from Harleco® diagnostics utilizes the activity of lipase, i.e., the digestion of triglycerides to diglycerides and monoglycerides, glycerol and free fatty acids. After this digestion is allowed to proceed at the optimal buffered pH, the turbidity is measured spectrophotometrically at 400 nanometers.
(§9) In Examples VI and VII, a stool-free and urine-free pure lipase composition of the expressed activity is patched in the Hairless Mouse model as described above. This is the Control. This lipase composition is patched in combination with 0.1 ml of the lipase-inhibiting agent solution at the concentration expressed.
In this Example, a non-stool, no-urine pure lipase composition is patched in the hairless mouse model, and then in combination with a lipase-inhibiting agent at the indicated concentrations.

[3] = tested on: lipase; experiment: Relative lipase activity of the feces/urea patch with lipase-inhibiting agent (Examples I, II, IV); format: biochemical
Method: as §8, §7

[4] = tested on: lipase-related skin irritation; experiment: Hairless mouse patch test with pure lipase composition (Example VII); format: in vivo, hairless mice; conditions: 100 mM (ZnO, ZnCO3, Zn undecylenate patched as suspensions)
Excerpt: as §1, §2, §3, §4, §5, §6
as §9, with “expressed. […]” for “expressed.”

[5] = footnote to Example VII
[6] = background statement; cited from earlier work
[7] = Example III, 100 mM, control 4.95 ± 0.45 (control lipase activity 100,000)
[8] = Example VI, 50 mM, lipase control 40,320
[9] = Example VI, 100 mM, lipase control 40,320
[10] = Example I, 10 mM, 0.1 ml with 0.375 ml feces/urea homogenate, 48 hrs occluded, control 7.20 ± 0.75
[11] = Example I, 25 mM, 0.1 ml with 0.375 ml feces/urea homogenate, 48 hrs occluded, control 7.20 ± 0.75
[12] = Example I, 50 mM, 0.1 ml with 0.375 ml feces/urea homogenate, 48 hrs occluded, control 7.20 ± 0.75
[13] = Example I, 100 mM, 0.1 ml with 0.375 ml feces/urea homogenate, 48 hrs occluded, control 7.20 ± 0.75
[14] = Example I, 10 mM agent solution, control 6250
[15] = Example I, 25 mM agent solution, control 6250
[16] = Example I, 50 mM agent solution, control 6250
[17] = Example I, 100 mM agent solution, control 6250
[18] = Example IV, 10 mM, control 127,500
[19] = Example IV, 25 mM, control 127,500
[20] = Example IV, 50 mM, control 127,500
[21] = Example IV, 100 mM, control 127,500
[22] = Example V, 100 mM, control 4.45 ± 0.17
[23] = Example VII, 100 mM (ZnO, ZnCO3, Zn undecylenate patched as suspensions), control 36,750

[Ca+2].[Cl-].[Cl-] [CaCl2, reference compound]
IRRITATION INDEX [1, 7]: 3.55 ± 1.10

[Cl][Co][Cl] [CoCl2, cobalt chloride]
% REDUCTION LIPASE ACTIVITY ([2]; Example VI, 50 mM): 41% | LIPASE ACTIVITY [2, 8]: 23,750 | % REDUCTION LIPASE ACTIVITY ([2]; Example VI, 100 mM): 81% | LIPASE ACTIVITY [2, 9]: 7,750

O=S(=O)([O-])[O-].[Cu+2] [CuSO4, copper sulfate]
% REDUCTION LIPASE ACTIVITY ([2]; Example VI, 50 mM): 54% | LIPASE ACTIVITY [2, 8]: 18,500 | % REDUCTION LIPASE ACTIVITY ([2]; Example VI, 100 mM): 59% | LIPASE ACTIVITY [2, 9]: 16,500

O.O.O.O.O.O=S(=O)([O-])[O-].[Cu+2] [CuSO4.5H2 O, copper sulfate pentahydrate]
IRRITATION INDEX [1, 10]: 6.75 ± 1.42 | IRRITATION INDEX [1, 11]: 5.35 ± 2.93 | IRRITATION INDEX [1, 12]: 3.50 ± 3.08 | IRRITATION INDEX [1, 13]: 5.50 ± 1.05 | RELATIVE LIPASE ACTIVITY [3, 14]: 4750 | RELATIVE LIPASE ACTIVITY [3, 15]: 2250 | RELATIVE LIPASE ACTIVITY [3, 16]: 750 | RELATIVE LIPASE ACTIVITY [3, 17]: 0

O.O.O.O.O.O.[Cl-].[Cl-].[Cl-].[Fe+3] [FeCl3.6H2 O, iron(III)chloride hexahydrate]
% REDUCTION LIPASE ACTIVITY ([2]; Example VI, 50 mM): 99% | LIPASE ACTIVITY [2, 8]: 500 | % REDUCTION LIPASE ACTIVITY ([2]; Example VI, 100 mM): 100% | LIPASE ACTIVITY [2, 9]: 0 | RELATIVE LIPASE ACTIVITY [3, 18]: 177,500 | RELATIVE LIPASE ACTIVITY [3, 19]: 128,750 | RELATIVE LIPASE ACTIVITY [3, 20]: 111,350 | RELATIVE LIPASE ACTIVITY [3, 21]: 6250

[Cl][La]([Cl])[Cl] [LaCl3, lanthanum chloride]
IRRITATION INDEX [1, 7]: 0 ± 0

[Cl][Sn][Cl] [SnCl2, tin(II)chloride]
IRRITATION INDEX [1, 22]: 0.50 ± 0.16 | % REDUCTION LIPASE ACTIVITY ([2]; Example VI, 50 mM): 93% | LIPASE ACTIVITY [2, 8]: 3,000 | % REDUCTION LIPASE ACTIVITY ([2]; Example VI, 100 mM): 97% | LIPASE ACTIVITY [2, 9]: 1,250

C=CCCCCCCCCC(=O)[O-].C=CCCCCCCCCC(=O)[O-].[Zn+2] [Zn undecylenate]
LIPASE ACTIVITY [2, 23]: 10,080 | % REDUCTION IN IRRITATION INDEX [4]: 73%

O=C([O-])[O-].[Zn+2] [ZnCO3, zinc carbonate, reference compound]
LIPASE ACTIVITY [2, 23]: 35,000 | inhibition of lipase [2]: ineffective | % REDUCTION IN […] [4]: 5%

[Cl-].[Cl-].[Zn+2] [ZnCl2, zinc chloride]
IRRITATION INDEX [1, 10]: 6.05 ± 1.23 | IRRITATION INDEX [1, 11]: 4.95 ± 1.36 | IRRITATION INDEX [1, 12]: 0.80 ± 1.01 | IRRITATION INDEX [1, 13]: 1.15 ± 0.97 | IRRITATION INDEX ([1]; Example II, 20 mM, control 6.67 ± 0.94): 3.50 ± 2.44 | IRRITATION INDEX ([1]; Example II, 30 mM, control 6.67 ± 0.94): 4.87 ± 1.37 | IRRITATION INDEX ([1]; Example II, 40 mM, control 6.67 ± 0.94): 2.62 ± 1.86 | IRRITATION INDEX ([1]; Example II, 50 mM, control 6.67 ± 0.94): 2.54 ± 1.78 | IRRITATION INDEX ([1]; Example II, 60 mM, control 6.67 ± 0.94): 1.42 ± 1.62 | IRRITATION INDEX ([1]; Example II, 70 mM, control 6.67 ± 0.94): 1.17 ± 1.01 | IRRITATION INDEX [1, 7]: 0.55 ± 1.23 | IRRITATION INDEX ([1]; Example IV, 10 mM, control 6.15 ± 1.08): 5.55 ± 0.95 | IRRITATION INDEX ([1]; Example IV, 25 mM, control 6.15 ± 1.08): 0.50 ± 0.82 | IRRITATION INDEX ([1]; Example IV, 50 mM, control 6.15 ± 1.08): 0.45 ± 0.64 | IRRITATION INDEX ([1]; Example IV, 100 mM, control 6.15 ± 1.08): 1.75 ± 1.65 | IRRITATION INDEX [1, 22]: 1.85 ± 0.61 | % REDUCTION LIPASE ACTIVITY ([2]; Example VI, 50 mM): 96% | LIPASE ACTIVITY [2, 8]: 1,500 | % REDUCTION LIPASE ACTIVITY ([2]; Example VI, 100 mM): 98% | LIPASE ACTIVITY [2, 9]: 750 | LIPASE ACTIVITY [2, 23]: 1,250 | % REDUCTION IN IRRITATION INDEX [4]: 97% | RELATIVE LIPASE ACTIVITY [3, 14]: 5000 | RELATIVE LIPASE ACTIVITY [3, 15]: 0 | RELATIVE LIPASE ACTIVITY [3, 16]: 0 | RELATIVE LIPASE ACTIVITY [3, 17]: 0 | RELATIVE LIPASE ACTIVITY ([3]; Example II, 20 mM, control 6000): 500 | RELATIVE LIPASE ACTIVITY ([3]; Example II, 30 mM, control 6000): 1250 | RELATIVE LIPASE ACTIVITY ([3]; Example II, 40 mM, control 6000): 0 | RELATIVE LIPASE ACTIVITY ([3]; Example II, 50 mM, control 6000): 0 | RELATIVE LIPASE ACTIVITY ([3]; Example II, 60 mM, control 6000): 0 | RELATIVE LIPASE ACTIVITY ([3]; Example II, 70 mM, control 6000): 0 | RELATIVE LIPASE ACTIVITY [3, 18]: 72,500 | RELATIVE LIPASE ACTIVITY [3, 19]: 0 | RELATIVE LIPASE ACTIVITY [3, 20]: 0 | RELATIVE LIPASE ACTIVITY [3, 21]: 0

[O]=[Zn] [ZnO, zinc oxide, reference compound]
LIPASE ACTIVITY [2, 23]: 33,000 | inhibition of lipase [2]: ineffective | concentration of solution the salt is capable of forming [5]: 20 µM | % REDUCTION IN […] [4]: 10% | solubility in water [6]: almost totally insoluble

Zinc glycerolate
solubility in water [6]: insoluble
